Laboratory results as given in paper PMC9064607 (Biochemistry, 2022).

Biological target: T1, Peptidylglycine monooxygenase (PHM) (Rattus norvegicus, UniProt P14925)
T1 sequence (P14925 42-356): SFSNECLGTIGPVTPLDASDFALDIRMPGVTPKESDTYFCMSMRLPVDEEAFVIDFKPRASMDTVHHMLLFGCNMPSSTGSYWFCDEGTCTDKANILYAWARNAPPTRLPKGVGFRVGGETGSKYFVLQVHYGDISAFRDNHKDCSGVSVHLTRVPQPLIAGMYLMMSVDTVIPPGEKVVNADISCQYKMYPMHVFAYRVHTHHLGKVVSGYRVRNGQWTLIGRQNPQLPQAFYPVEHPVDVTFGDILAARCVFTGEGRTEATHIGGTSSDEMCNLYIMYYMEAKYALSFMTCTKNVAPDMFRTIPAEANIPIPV
Assay: chemical-quench product formation versus ascorbate, fitted to a binding event
Type: biochemical

O=C1O[C@H]([C@@H](O)CO)C(O)=C1O [ascorbate]
Kd: 117 µM
